For six compounds, EC50 results are on record in patent publication US9556139B2, “6-substituted phenoxychroman carboxylic acid derivatives” (Array BioPharma Inc., priority 2008, dated 2017).

Molecules are shown by their SMILES. Like-named read-outs stand apart in the source and are kept apart here.

This assay concerns the target human DP2 (Homo sapiens (Human), UniProt Q9Y5Y4). In words: DP-2 Binding Inhibition Assay (3H-PGD2 binding to membranes of K562 cells expressing DP2). Conditions: inhibition of 3H-PGD2 binding. The gist of the method: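 Radioligand filtration binding: ³H-PGD2 displacement from DP2-expressing K562 cell membranes, 60 min, room temperature, pH 7.4, under 0.1% BSA, 1% HSA or 4% HSA.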

[1] abbreviates: read-out: EC50 (nM) 4% HSA, 4% HSA.

human DP2, sequence (Q9Y5Y4 whole entry): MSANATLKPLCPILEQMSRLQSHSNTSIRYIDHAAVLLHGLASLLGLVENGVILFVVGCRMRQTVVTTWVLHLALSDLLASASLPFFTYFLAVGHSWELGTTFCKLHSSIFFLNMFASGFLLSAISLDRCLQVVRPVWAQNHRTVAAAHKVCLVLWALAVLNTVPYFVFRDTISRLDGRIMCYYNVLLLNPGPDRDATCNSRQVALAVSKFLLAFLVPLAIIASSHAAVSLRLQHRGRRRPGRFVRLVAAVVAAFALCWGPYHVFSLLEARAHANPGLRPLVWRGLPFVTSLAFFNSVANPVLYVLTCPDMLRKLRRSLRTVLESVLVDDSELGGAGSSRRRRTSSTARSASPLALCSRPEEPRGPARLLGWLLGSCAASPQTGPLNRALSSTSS

Take `CCOc1cc(OC)ccc1CCNC(=O)c1ccc(Oc2cc3c(cc2Cl)C(C(=O)O)CCO3)cc1` (stereo not drawn) [Example 228, 6-chloro-7-(4-(2-ethoxy-4-methoxyphenethylcarbamoyl)phenoxy)chroman-4-carboxylic acid]: the EC50 (as a rule, the concentration at which the effect is half-maximal) under setting [1] came to 88.9 nM.
The same measure, in the same setting: with `CSc1cc(Cl)ccc1CCNC(=O)c1ccc(Oc2cc3c(cc2Cl)C(C(=O)O)CCO3)cc1` (stereo not drawn) [Example 229, 6-chloro-7-(4-(4-chloro-2-(methylthio)phenethylcarbamoyl)phenoxy)chroman-4-carboxylic acid] the figure was 67.5 nM; with `O=C(NCCc1ccc(Cl)cc1F)c1ccc(Oc2cc3c(cc2Cl)C(C(=O)O)CCO3)cc1` (stereo not drawn) [Example 230, 6-chloro-7-(4-(4-chloro-2-fluorophenethylcarbamoyl)phenoxy)chroman-4-carboxylic acid], 243 nM.
On the same count and under the same terms, with `O=C(NCC1CCc2cc(Cl)ccc21)c1ccc(Oc2cc3c(cc2Cl)C(C(=O)O)CCO3)cc1` (stereo not drawn) [Example 231, 6-chloro-7-(4-((5-chloro-2,3-dihydro-1H-inden-1-yl)methylcarbamoyl)phenoxy) chroman-4-carboxylic acid] the figure was 225 nM; with `O=C(NCCc1ccc(C(F)(F)F)cc1C1CC1)c1ccc(Oc2cc3c(cc2Cl)C(C(=O)O)CCO3)cc1` (stereo not drawn) [Example 232, 6-chloro-7-(4-(2-cyclopropyl-4-(trifluoromethyl)phenethylcarbamoyl)phenoxy) chroman-4-carboxylic acid], 46.5 nM.
As to `O=C(NCCc1ccc(Cl)cc1O)c1ccc(Oc2cc3c(cc2Cl)C(C(=O)O)CCO3)cc1` (stereo not drawn) [Example 233, 6-Chloro-7-(4-(4-chloro-2-hydroxyphenethylcarbamoyl)phenoxy)chroman-4-carboxylic acid], a half-maximal response (EC50 (nM) 0.1% BSA, 0.1% BSA) (EC50) required 11.1 nM.
